Consider 11 compounds from patent publication US20140294856A1, “COMBINATION TREATMENT COMPRISING A HDAC6 INHIBITOR AND AN AKT INHIBITOR” (priority 2011, published 2014).

Molecules are shown by their SMILES. Where two headings read alike, the source gives them in different places.

Series [1] concerns HCT116 cells. In words: Combination studies, SRB assay, combination index (CalcuSyn). The class given is cell-based, human.
The test system of series [2] is HCT116 cells. Description: Phospho-AKT levels by western blotting. In kind it is cell-based, human. Conditions: for IC50: Homo sapiens, HCT-116.
Another series deals with HCT116 tumours. Description: Phospho-AKT levels in HCT116 tumours. In kind it is in vivo, mice. The following applies: single injection 25 mg/kg.
Series [3] concerns HCT116 human colon cancer xenograft. The following applies: BEZ-235 alone 20 mg/kg/d.
Series [4] is described as follows: Cytotoxicity of compounds of the invention (data not shown). In kind it is cell-based. An excerpt: HDAC-C1B also appears to be a promising drug candidate.
Series [5] concerns HCT116 cells. Description: Acetylation biomarkers by western blotting (with washout). In kind it is cell-based, human. As for the experimental part: FIG. 1. HDAC-C1A irreversible activity. A. […] inhibitory activity of HDAC-C1A was tested using HeLa nuclear extracts and compared to the negative (reversible) control HDAC-C1B. B Growth inhibitory effect of the different compounds in HCT-116 cells at indicated time and compared to growth inhibitory after 72 hours of incubation.
HSP90 protein expression was not altered (FIG. 2).

Series [6] concerns HCT116 cells. In words: Acetylated PTEN and PTEN expression. In kind it is cell-based, human. As for the experimental part: FIG. 12. HDAC-C1A treatment is associated with an increase of phopsho-AKT that can be reversed by PI3K/AKT/mTOR inhibitors. […] Similarly, Phospho-Pras 40 seems to increase following treatment with HDAC-C1A. Densitometry data could reinforce this statement (ratio between the total form and the Phospho form of Pras40 that decreases at 24 hours). […] No difference could be seen in endometrial cancer cell line, […]. C. […] E. BEZ-235 can fully reverse the increase of Phospho-AKT mediated by HDAC-C1A in HCT-116 cells. BEZ-235 and HDAC-C1A were co-incubated at the indicated time and concentrations.
FIG. 17. A. Dose and time impact of Tubastatin A on acetylated form of tubulin and histones H3 and H4 and on phospho-AKT levels that could be reversed with BEZ-235 in HCT-116 cells. […] HCT116 were immunoprecipitation with PTEN and stained with HDAC1 or HDAC6, immunoprecipitation with HDAC6 and stained with PTEN. No HDAC1 could have been detected in contrast with HDAC6. There was no effect of the different inhibitors on the different protein levels.
PTEN protein expression was not altered. In vivo, on the gene array, the mRNA levels of PTEN were not altered in HCT116 xenograft model following treatment with HDAC-C1A after 1 and 14 days when compared with vehicle treated group (FIG. 7).
We have shown that HDAC-C1A is associated with increased acetylation of α-tubulin, acetyl HSP90 and acetyl PTEN with only a minor effect on the regulation of the genes (less than 0.7% of the genes have been de-regulated after 14 days of treatment in vivo). We believe that the acetylation of PTEN, via the inhibition of HDAC6, leads to an increase of P-AKT. […] No effect of BEZ235 could be seen on the acetylated status of α-tubulin and histones H3 and H4.

The next series in a line: in vitro. The following applies: human, Caco-2.
A further series has as its system A2780 cells. Description: Impact of glutathione co-incubation on survival. The following applies: compound 1 μM.
The target of the next series is MRP1 (Homo sapiens, UniProt P33527). Description: Impact of MRP1 on cytotoxicity, MK-571 pre-treatment in A549 cells.
In a further series the test system is A549 cells. Description: Impact of BSO (GSH depletion) on growth inhibition, SRB assay. The class given is cell-based. The following applies: 10 μM BSO for 24 hours.
In series [7] the test system is CHO cells deficient in DNA repair. Description: Growth inhibition in cell lines deficient in DNA repair machinery. In kind it is cell-based.
A further series concerns the target T1, ABCG2 (Homo sapiens, UniProt Q9UNQ0).
T1 sequence (Q9UNQ0 1-655): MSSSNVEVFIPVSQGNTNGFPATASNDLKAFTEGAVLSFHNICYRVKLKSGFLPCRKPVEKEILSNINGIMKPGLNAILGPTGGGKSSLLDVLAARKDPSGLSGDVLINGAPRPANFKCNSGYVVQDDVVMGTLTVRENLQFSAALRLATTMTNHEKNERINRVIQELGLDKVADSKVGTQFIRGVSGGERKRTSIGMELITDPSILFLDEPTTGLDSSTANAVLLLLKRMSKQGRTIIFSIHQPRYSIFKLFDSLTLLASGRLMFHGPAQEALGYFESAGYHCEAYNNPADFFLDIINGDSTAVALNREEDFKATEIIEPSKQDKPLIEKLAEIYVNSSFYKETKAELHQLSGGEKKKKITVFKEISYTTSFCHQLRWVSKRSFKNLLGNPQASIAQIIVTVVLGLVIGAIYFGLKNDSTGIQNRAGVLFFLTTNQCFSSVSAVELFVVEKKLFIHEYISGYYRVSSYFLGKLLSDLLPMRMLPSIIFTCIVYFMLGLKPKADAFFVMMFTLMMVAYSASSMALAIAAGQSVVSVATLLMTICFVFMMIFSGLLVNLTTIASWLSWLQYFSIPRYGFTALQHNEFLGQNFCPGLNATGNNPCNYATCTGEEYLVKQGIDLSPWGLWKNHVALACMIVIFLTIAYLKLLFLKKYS

A further series addresses P-gp (Homo sapiens, UniProt P08183). The following applies: mouse.
The mark [8] stands for this setting: homologous recombination repair.

MRP1, sequence (P33527 whole entry): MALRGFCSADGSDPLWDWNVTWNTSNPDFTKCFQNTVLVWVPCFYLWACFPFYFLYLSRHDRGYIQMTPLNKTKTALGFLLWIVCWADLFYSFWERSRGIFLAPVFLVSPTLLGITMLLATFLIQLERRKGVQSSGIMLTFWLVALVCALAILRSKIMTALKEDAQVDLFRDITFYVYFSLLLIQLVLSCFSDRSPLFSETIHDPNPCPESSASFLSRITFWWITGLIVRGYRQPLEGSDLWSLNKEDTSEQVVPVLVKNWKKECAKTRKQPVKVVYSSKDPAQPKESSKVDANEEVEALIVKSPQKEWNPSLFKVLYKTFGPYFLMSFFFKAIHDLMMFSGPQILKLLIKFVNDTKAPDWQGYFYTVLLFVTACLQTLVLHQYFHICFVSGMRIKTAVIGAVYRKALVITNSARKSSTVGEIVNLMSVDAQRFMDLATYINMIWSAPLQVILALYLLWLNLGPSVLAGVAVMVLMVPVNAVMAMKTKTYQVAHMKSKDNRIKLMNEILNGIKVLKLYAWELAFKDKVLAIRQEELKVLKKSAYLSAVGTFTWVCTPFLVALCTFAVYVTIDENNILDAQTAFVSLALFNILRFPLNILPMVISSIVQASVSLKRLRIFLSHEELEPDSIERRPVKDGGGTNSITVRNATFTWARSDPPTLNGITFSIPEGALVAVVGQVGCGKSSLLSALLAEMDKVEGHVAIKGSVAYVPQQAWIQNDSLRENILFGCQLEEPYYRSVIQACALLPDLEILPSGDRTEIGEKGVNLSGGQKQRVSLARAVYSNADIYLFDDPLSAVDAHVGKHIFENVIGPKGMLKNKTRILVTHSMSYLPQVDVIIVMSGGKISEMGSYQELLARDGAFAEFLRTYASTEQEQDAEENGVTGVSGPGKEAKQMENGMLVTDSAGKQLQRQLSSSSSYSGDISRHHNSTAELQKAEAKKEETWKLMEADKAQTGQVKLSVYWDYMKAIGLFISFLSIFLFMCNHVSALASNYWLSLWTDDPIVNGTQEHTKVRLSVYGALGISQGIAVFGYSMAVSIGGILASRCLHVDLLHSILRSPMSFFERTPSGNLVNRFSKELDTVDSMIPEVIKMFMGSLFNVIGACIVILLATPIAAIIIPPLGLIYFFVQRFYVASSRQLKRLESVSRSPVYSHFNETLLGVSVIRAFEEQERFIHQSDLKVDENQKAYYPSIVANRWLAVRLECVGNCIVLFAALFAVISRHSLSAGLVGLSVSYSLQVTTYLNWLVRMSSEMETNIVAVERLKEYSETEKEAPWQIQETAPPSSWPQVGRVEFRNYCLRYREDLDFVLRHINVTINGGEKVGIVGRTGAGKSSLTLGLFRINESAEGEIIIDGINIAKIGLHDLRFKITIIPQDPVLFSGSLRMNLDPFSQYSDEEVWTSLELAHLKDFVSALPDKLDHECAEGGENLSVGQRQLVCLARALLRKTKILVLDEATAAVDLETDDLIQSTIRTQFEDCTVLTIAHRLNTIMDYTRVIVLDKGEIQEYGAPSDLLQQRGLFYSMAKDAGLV
P-gp, sequence (P08183 whole entry): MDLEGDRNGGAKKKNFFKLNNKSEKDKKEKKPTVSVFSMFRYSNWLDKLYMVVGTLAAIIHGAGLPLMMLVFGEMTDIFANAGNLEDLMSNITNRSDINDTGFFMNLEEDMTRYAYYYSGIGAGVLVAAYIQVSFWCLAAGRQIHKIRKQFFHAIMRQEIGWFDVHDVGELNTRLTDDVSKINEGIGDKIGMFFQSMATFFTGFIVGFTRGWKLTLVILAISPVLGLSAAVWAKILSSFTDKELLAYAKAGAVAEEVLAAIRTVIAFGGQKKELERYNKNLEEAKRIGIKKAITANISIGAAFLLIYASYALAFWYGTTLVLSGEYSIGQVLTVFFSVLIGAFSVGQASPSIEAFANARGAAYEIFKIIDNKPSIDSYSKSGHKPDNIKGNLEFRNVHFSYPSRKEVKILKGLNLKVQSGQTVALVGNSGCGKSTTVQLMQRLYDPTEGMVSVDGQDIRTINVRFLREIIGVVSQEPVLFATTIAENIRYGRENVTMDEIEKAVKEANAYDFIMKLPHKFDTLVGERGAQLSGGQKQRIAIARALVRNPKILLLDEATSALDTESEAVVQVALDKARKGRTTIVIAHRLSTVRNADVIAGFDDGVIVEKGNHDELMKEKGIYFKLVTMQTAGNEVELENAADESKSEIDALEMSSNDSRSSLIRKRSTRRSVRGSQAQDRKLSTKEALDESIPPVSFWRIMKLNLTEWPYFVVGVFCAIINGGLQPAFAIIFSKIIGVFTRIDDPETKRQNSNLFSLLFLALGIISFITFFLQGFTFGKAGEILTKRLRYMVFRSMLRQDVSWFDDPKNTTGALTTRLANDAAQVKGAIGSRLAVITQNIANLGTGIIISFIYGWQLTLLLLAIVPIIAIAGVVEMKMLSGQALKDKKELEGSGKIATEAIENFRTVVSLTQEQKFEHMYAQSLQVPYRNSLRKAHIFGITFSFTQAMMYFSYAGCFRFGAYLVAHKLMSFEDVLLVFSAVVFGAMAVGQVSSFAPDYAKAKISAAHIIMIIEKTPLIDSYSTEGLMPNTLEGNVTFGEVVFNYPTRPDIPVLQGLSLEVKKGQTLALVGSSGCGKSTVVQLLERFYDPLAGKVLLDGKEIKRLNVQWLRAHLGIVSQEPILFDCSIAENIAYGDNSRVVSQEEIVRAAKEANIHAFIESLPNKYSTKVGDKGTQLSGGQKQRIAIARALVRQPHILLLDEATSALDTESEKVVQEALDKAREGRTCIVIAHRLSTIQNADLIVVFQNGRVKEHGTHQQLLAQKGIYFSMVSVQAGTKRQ
Method for MRP1: The impact of ABC transporters on the cytotoxicity of HDAC-C1A was assessed using cell lines with differential expression of the ABC transporters and by using inhibitors.

In the case of `O=c1[nH]cc(F)c(=O)[nH]1` [5FU], the “combination effect with HDAC-C1A on growth inhibition” value with HCT116 cells [1] (HCT116, 72 hours) is “additive effect”.
Take `CN(C)CC[C@H](CSc1ccccc1)Nc1ccc(S(=O)(=O)NC(=O)c2ccc(N3CCN(Cc4ccccc4-c4ccc(Cl)cc4)CC3)cc2)cc1[N+](=O)[O-]` [ABT-737]: the “combination effect with HDAC-C1A on growth inhibition” value in the series on HCT116 cells [1] (HCT116, 72 hours) is “Synergistic effect”.
On to `Cn1c(=O)n(-c2ccc(C(C)(C)C#N)cc2)c2c3cc(-c4cnc5ccccc5c4)ccc3ncc21` [BEZ-235], for which the “combination effect with HDAC-C1A on growth inhibition” value with HCT116 cells [1] (HCT116, 72 hours) was “Synergistic effect”. Further, the “P-AKT levels, single agent” value in the series with HCT116 cells [2] is on record as “dose dependent decrease”. The IC50 amounted to 10 nM with HCT116 cells [2] (4 hours treatment, read-out: IC50 for inhibition of P-AKT); 10 nM in the series on HCT116 cells [2] (added to Tubastatin A, read-out: IC50 for reversal of Tubastatin A-induced P-AKT); 50 nM in the series on HCT116 cells [2] (combined with 10 μM HDAC-C1A, read-out: IC50 for P-AKT when combined with HDAC-C1A). In addition, in the series on HCT116 cells [2] (added to Tubastatin A), the “effect on acetylated status of α-tubulin and histones H3 and H4” value is recorded as “No effect”. Moreover, in the series with HCT116 cells [2] (co-incubated with HDAC-C1A), the “reversal of the increase of Phospho-AKT mediated by HDAC-C1A” value is reported as “fully reverse”. Besides, the P-AKT in tumours entry in the series with HCT116 tumours (2 hours after treatment) was “Persistent inhibition”; in the series with HCT116 tumours (by 30 minutes) it was “rapid down-regulation”; in the series with HCT116 tumours (from 6 hours post treatment) it was “partial recovery to basal levels”. Besides, the TGD2x in [3] amounted to 3.4 ± 1.9 days. For the same compound, the TGI in [3] is 21%.
`CCN(CC)c1ccc(S(=O)(=O)Nc2ccc(/C=C(C)/C=C/C(=O)NO)cc2)cc1` [HDAC-C1B]: the “cytotoxic potency relative to HDAC-C1A” value in series [4] is on record as “approximately 1.5 fold”.
As to `COc1ccc(C2=N[C@@H](c3ccc(Cl)cc3)[C@@H](c3ccc(Cl)cc3)N2C(=O)N2CCNC(=O)C2)c(OC(C)C)c1` [Nutlin-3], the “combination effect with HDAC-C1A on growth inhibition” value in the series on HCT116 cells [1] (HCT116, 72 hours) is “additive effect”.
As for `O=C(CCCCCCC(=O)Nc1ccccc1)NO` [SAHA, suberanoyl hydroxamic acid, reference compound], the “acetylation markers at low concentration and early time point” value in the series with HCT116 cells [5] (1 μM and 4 hours) is recorded as “opposite”. In addition, the “acetylation of histone H3, H4 and α-tubulin after washout” value in the series on HCT116 cells [5] (treatment 4 hours, then washout) is “lost by 4 h”. Also, the “concentration of LY-294002 needed to synergise” value in the series on HCT116 cells [1] was “greater than 4 μM”. The “combination effect with rapamycin at ED50” value in the series on HCT116 cells [1] (concentrations below 7.5 μM) is reported as “antagonistic effect”. In addition, the “effect on P-AKT” value in the series with HCT116 cells [2] (10 μM) is “no effect”. In addition, in the series on HCT116 cells [6] (4 h and 24 h, 1 μM and 10 μM), the “acetyl form of PTEN” value was “no effect”. Besides, the Papp A→B in “in vitro” is 14 ×10⁻⁶ cm/s. In addition, the “effect of GSH on cytotoxicity” value with A2780 cells was “antagonistic effect”. Besides, the “substrate of MRP1” value on MRP1 is “non-substrates”.
As for `CN1CCc2c(c3ccccc3n2Cc2ccc(C(=O)NO)cc2)C1` [Tubastatin A], the “concentration of LY-294002 needed to synergise” value with HCT116 cells [1] was 0.1 µM. Moreover, in the series on HCT116 cells [1] (HCT116, 72 hours), the “combination effect with inhibitors of the PI3K/AKT/mTOR pathway” value was “synergises as well”. Moreover, in the series with HCT116 cells [2] (Tubastatin A alone), the P-AKT entry is listed as “time dependent increase”. The “acetylated form of PTEN” value in the series on HCT116 cells [6] (24 hours of incubation) is reported as “dose dependent increase”.
`CC(C)C[C@H](NC(=O)[C@H](Cc1ccccc1)NC(=O)c1cnccn1)B(O)O` [bortezomib]: in the series with HCT116 cells [1] (HCT116, 72 hours), the “combination effect with HDAC-C1A on growth inhibition” value is “Synergistic effect”.
As to `O=C(O)CCCc1ccc(N(CCCl)CCCl)cc1` [chlorambucil, reference compound], the “impact of BSO on growth inhibition (GI50 ratio)” value with A549 cells turned out to be 8.5. Further, in series [7] (setting [8]), the “sensitivity (GI50 ratio) of cells deficient in XRCC3 vs proficient” value was 7.8 and the “sensitivity (GI50 ratio, fold) of cells deficient in XRCC2 vs proficient” value is recorded as over 100. In series [7] (non homologous end joining), the “sensitivity (GI50 ratio, fold) of cells deficient in XRCC5 vs proficient” value is on record as over 100. For the same compound, the “sensitivity (GI50 ratio) of cells deficient in ERCC1 vs proficient” value in series [7] (nucleotide excision repair) is recorded as over 100.
Regarding `O=C1c2c(O)ccc(O)c2C(=O)c2c(NCCNCCO)ccc(NCCNCCO)c21` [mitoxantrone], on ABCG2, the “fold resistance (GI50 ratio) MCF7-MX vs parental MCF7” value amounted to 120 fold and the “reversal of resistance by FTC in MCF7-MX cells” value is reported as 70 fold.
Consider `CC[C@]1(O)C[C@@H]2CN(CCc3c([nH]c4ccccc34)[C@@](C(=O)OC)(c3cc4c(cc3OC)N(C)[C@H]3[C@@](O)(C(=O)OC)[C@H](OC(C)=O)[C@]5(CC)C=CCN6CC[C@]43[C@@H]65)C2)C1` [vinblastine], for which the “fold resistance (GI50 ratio) P-gp over-expressing 3T3 vs parental” value on P-gp was over 100 fold.
